tested on: Thalamus; test: Drug uptake in anesthetized cynomolgus monkey brain thalamus after 205 mins postinjection; assay type: ADME, organism-based, Macaca fascicularis; details: in vivo

| Compound | Drug uptake |
| --- | --- |
| O=C(OCC[18F])C1C2CCC(CC1c1cccc(/C=C\Br)c1)N2 (stereo not drawn) | 3.3 |

tested on: Putamen; test: Drug uptake in anesthetized cynomolgus monkey brain putamen after 105 mins postinjection; assay type: ADME, organism-based, Macaca fascicularis; design: unit not given here; details: in vivo, 1.75 h

| Compound | Drug uptake |
| --- | --- |
| O=C(OCC[18F])C1C2CCC(CC1c1cccc(/C=C\Br)c1)N2 (stereo not drawn) | 4.82 |

tested on: Pons; test: Drug uptake in anesthetized cynomolgus monkey brain pons after 155 mins postinjection; assay type: ADME, organism-based, Macaca fascicularis; details: in vivo

| Compound | Drug uptake |
| --- | --- |
| O=C(OCC[18F])C1C2CCC(CC1c1cccc(/C=C\Br)c1)N2 (stereo not drawn) | 3.92 |

tested on: Medulla; test: Drug uptake in anesthetized cynomolgus monkey brain medulla after 115 mins postinjection; assay type: ADME, organism-based, Macaca fascicularis; details: in vivo

| Compound | Drug uptake |
| --- | --- |
| O=C(OCC[18F])C1C2CCC(CC1c1cccc(/C=C\Br)c1)N2 (stereo not drawn) | 4.28 |

tested on: not listed separately; test: Drug uptake in anesthetized cynomolgus monkey brain cerebellum after 175 mins postinjection; assay type: ADME, organism-based, Macaca fascicularis; details: in vivo

| Compound | Drug uptake |
| --- | --- |
| O=C(OCC[18F])C1C2CCC(CC1c1cccc(/C=C\Br)c1)N2 (stereo not drawn) | 2.03 |

tested on: Medulla; test: Drug uptake in anesthetized cynomolgus monkey brain medulla after 165 mins postinjection; assay type: ADME, organism-based, Macaca fascicularis; details: in vivo, 2.75 h

| Compound | Drug uptake |
| --- | --- |
| O=C(OCC[18F])C1C2CCC(CC1c1cccc(/C=C\Br)c1)N2 (stereo not drawn) | 3.94 |

tested on: Midbrain; test: Drug uptake in anesthetized cynomolgus monkey brain midbrain after 135 mins postinjection; assay type: ADME, organism-based, Macaca fascicularis; details: in vivo, 2.25 h

| Compound | Drug uptake |
| --- | --- |
| O=C(OCC[18F])C1C2CCC(CC1c1cccc(/C=C\Br)c1)N2 (stereo not drawn) | 4.67 |

tested on: not listed separately; test: Ratio of drug uptake in occipital lobe to cerebellum in anesthetized cynomolgus monkey after 235 mins postinjection; assay type: ADME, organism-based, Macaca fascicularis; details: in vivo

| Compound | Ratio |
| --- | --- |
| O=C(OCC[18F])C1C2CCC(CC1c1cccc(/C=C\Br)c1)N2 (stereo not drawn) | 1.2 |

tested on: not listed separately; test: Drug uptake in anesthetized cynomolgus monkey brain occipital lobe after 195 mins postinjection; assay type: ADME, organism-based, Macaca fascicularis; details: in vivo, 3.25 h

| Compound | Drug uptake |
| --- | --- |
| O=C(OCC[18F])C1C2CCC(CC1c1cccc(/C=C\Br)c1)N2 (stereo not drawn) | 2.02 |

tested on: not listed separately; test: Ratio of drug uptake in medulla to cerebellum in anesthetized cynomolgus monkey after 135 mins postinjection; assay type: ADME, organism-based, Macaca fascicularis; details: in vivo, 2.25 h

| Compound | Ratio |
| --- | --- |
| O=C(OCC[18F])C1C2CCC(CC1c1cccc(/C=C\Br)c1)N2 (stereo not drawn) | 1.7 |

tested on: not listed separately; test: Ratio of drug uptake in putamen to cerebellum in anesthetized cynomolgus monkey after 65 mins postinjection; assay type: ADME, organism-based, Macaca fascicularis; details: in vivo

| Compound | Ratio |
| --- | --- |
| O=C(OCC[18F])C1C2CCC(CC1c1cccc(/C=C\Br)c1)N2 (stereo not drawn) | 1.5 |

tested on: Thalamus; test: Drug uptake in anesthetized cynomolgus monkey brain thalamus after 65 mins postinjection; assay type: ADME, organism-based, Macaca fascicularis; design: unit not given here; details: in vivo

| Compound | Drug uptake |
| --- | --- |
| O=C(OCC[18F])C1C2CCC(CC1c1cccc(/C=C\Br)c1)N2 (stereo not drawn) | 4.51 |

tested on: not listed separately; test: Ratio of drug uptake in occipital lobe to cerebellum in anesthetized cynomolgus monkey after 0.5 mins postinjection; assay type: ADME, organism-based, Macaca fascicularis; details: in vivo

| Compound | Ratio |
| --- | --- |
| O=C(OCC[18F])C1C2CCC(CC1c1cccc(/C=C\Br)c1)N2 (stereo not drawn) | 1.6 |

tested on: Caudate; test: Drug uptake in anesthetized cynomolgus monkey brain caudate after 27.5 mins postinjection; assay type: ADME, organism-based, Macaca fascicularis, Caudate nucleus; details: in vivo

| Compound | Drug uptake |
| --- | --- |
| O=C(OCC[18F])C1C2CCC(CC1c1cccc(/C=C\Br)c1)N2 (stereo not drawn) | 3.3 |

tested on: Midbrain; test: Drug uptake in anesthetized cynomolgus monkey brain midbrain after 4.5 mins postinjection; assay type: ADME, organism-based, Macaca fascicularis; design: unit not given here; details: in vivo, 0.075 h

| Compound | Drug uptake |
| --- | --- |
| O=C(OCC[18F])C1C2CCC(CC1c1cccc(/C=C\Br)c1)N2 (stereo not drawn) | 1.76 |

tested on: Pons; test: Drug uptake in anesthetized cynomolgus monkey brain pons after 185 mins postinjection; assay type: ADME, organism-based, Macaca fascicularis; details: in vivo

| Compound | Drug uptake |
| --- | --- |
| O=C(OCC[18F])C1C2CCC(CC1c1cccc(/C=C\Br)c1)N2 (stereo not drawn) | 3.6 |

tested on: Midbrain; test: Drug uptake in anesthetized cynomolgus monkey brain midbrain after 195 mins postinjection; assay type: ADME, organism-based, Macaca fascicularis; details: in vivo, 3.25 h

| Compound | Drug uptake |
| --- | --- |
| O=C(OCC[18F])C1C2CCC(CC1c1cccc(/C=C\Br)c1)N2 (stereo not drawn) | 3.91 |

tested on: not listed separately; test: Drug uptake in anesthetized cynomolgus monkey brain cerebellum after 75 mins postinjection; assay type: ADME, organism-based, Macaca fascicularis; details: in vivo, 1.25 h

| Compound | Drug uptake |
| --- | --- |
| O=C(OCC[18F])C1C2CCC(CC1c1cccc(/C=C\Br)c1)N2 (stereo not drawn) | 3.3 |

tested on: Pons; test: Drug uptake in anesthetized cynomolgus monkey brain pons after 12.5 mins postinjection; assay type: ADME, organism-based, Macaca fascicularis; details: in vivo

| Compound | Drug uptake |
| --- | --- |
| O=C(OCC[18F])C1C2CCC(CC1c1cccc(/C=C\Br)c1)N2 (stereo not drawn) | 3.52 |

tested on: Caudate; test: Drug uptake in anesthetized cynomolgus monkey brain caudate after 12.5 mins postinjection; assay type: ADME, organism-based, Macaca fascicularis, Caudate nucleus; details: in vivo

| Compound | Drug uptake |
| --- | --- |
| O=C(OCC[18F])C1C2CCC(CC1c1cccc(/C=C\Br)c1)N2 (stereo not drawn) | 2.61 |

tested on: Thalamus; test: Drug uptake in anesthetized cynomolgus monkey brain thalamus after 195 mins postinjection; assay type: ADME, organism-based, Macaca fascicularis; details: in vivo, 3.25 h

| Compound | Drug uptake |
| --- | --- |
| O=C(OCC[18F])C1C2CCC(CC1c1cccc(/C=C\Br)c1)N2 (stereo not drawn) | 3.18 |

tested on: not listed separately; test: Ratio of drug uptake in midbrain to cerebellum in anesthetized cynomolgus monkey after 22.5 mins postinjection; assay type: ADME, organism-based, Macaca fascicularis; details: in vivo, 0.375 h

| Compound | Ratio |
| --- | --- |
| O=C(OCC[18F])C1C2CCC(CC1c1cccc(/C=C\Br)c1)N2 (stereo not drawn) | 1.1 |

tested on: Pons; test: Drug uptake in anesthetized cynomolgus monkey brain pons after 125 mins postinjection; assay type: ADME, organism-based, Macaca fascicularis; details: in vivo

| Compound | Drug uptake |
| --- | --- |
| O=C(OCC[18F])C1C2CCC(CC1c1cccc(/C=C\Br)c1)N2 (stereo not drawn) | 4.27 |

tested on: not listed separately; test: Ratio of drug uptake in occipital lobe to cerebellum in anesthetized cynomolgus monkey after 125 mins postinjection; assay type: ADME, organism-based, Macaca fascicularis; details: in vivo

| Compound | Ratio |
| --- | --- |
| O=C(OCC[18F])C1C2CCC(CC1c1cccc(/C=C\Br)c1)N2 (stereo not drawn) | 1.1 |

tested on: not listed separately; test: Drug uptake in anesthetized cynomolgus monkey brain frontal lobe after 175 mins postinjection; assay type: ADME, organism-based, Macaca fascicularis; details: in vivo

| Compound | Drug uptake |
| --- | --- |
| O=C(OCC[18F])C1C2CCC(CC1c1cccc(/C=C\Br)c1)N2 (stereo not drawn) | 2.19 |

tested on: Medulla; test: Drug uptake in anesthetized cynomolgus monkey brain medulla after 85 mins postinjection; assay type: ADME, organism-based, Macaca fascicularis; details: in vivo

| Compound | Drug uptake |
| --- | --- |
| O=C(OCC[18F])C1C2CCC(CC1c1cccc(/C=C\Br)c1)N2 (stereo not drawn) | 4.73 |

tested on: not listed separately; test: Drug uptake in anesthetized cynomolgus monkey brain cerebellum after 2.5 mins postinjection; assay type: ADME, organism-based, Macaca fascicularis; details: in vivo

| Compound | Drug uptake |
| --- | --- |
| O=C(OCC[18F])C1C2CCC(CC1c1cccc(/C=C\Br)c1)N2 (stereo not drawn) | 0.42 |

tested on: not listed separately; test: Ratio of drug uptake in caudate to cerebellum in anesthetized cynomolgus monkey after 155 mins postinjection; assay type: ADME, organism-based, Macaca fascicularis; details: in vivo

| Compound | Ratio |
| --- | --- |
| O=C(OCC[18F])C1C2CCC(CC1c1cccc(/C=C\Br)c1)N2 (stereo not drawn) | 1.6 |

tested on: Caudate; test: Drug uptake in anesthetized cynomolgus monkey brain caudate after 125 mins postinjection; assay type: ADME, organism-based, Macaca fascicularis, Caudate nucleus; details: in vivo

| Compound | Drug uptake |
| --- | --- |
| O=C(OCC[18F])C1C2CCC(CC1c1cccc(/C=C\Br)c1)N2 (stereo not drawn) | 3.75 |

tested on: not listed separately; test: Drug uptake in anesthetized cynomolgus monkey brain occipital lobe after 9.5 mins postinjection; assay type: ADME, organism-based, Macaca fascicularis; details: in vivo

| Compound | Drug uptake |
| --- | --- |
| O=C(OCC[18F])C1C2CCC(CC1c1cccc(/C=C\Br)c1)N2 (stereo not drawn) | 2.66 |

tested on: not listed separately; test: Ratio of drug uptake in medulla to cerebellum in anesthetized cynomolgus monkey after 185 mins postinjection; assay type: ADME, organism-based, Macaca fascicularis; details: in vivo

| Compound | Ratio |
| --- | --- |
| O=C(OCC[18F])C1C2CCC(CC1c1cccc(/C=C\Br)c1)N2 (stereo not drawn) | 1.9 |

tested on: not listed separately; test: Drug uptake in anesthetized cynomolgus monkey brain cerebellum after 205 mins postinjection; assay type: ADME, organism-based, Macaca fascicularis; details: in vivo

| Compound | Drug uptake |
| --- | --- |
| O=C(OCC[18F])C1C2CCC(CC1c1cccc(/C=C\Br)c1)N2 (stereo not drawn) | 1.8 |

tested on: not listed separately; test: Drug uptake in anesthetized cynomolgus monkey brain cerebellum after 12.5 mins postinjection; assay type: ADME, organism-based, Macaca fascicularis; details: in vivo

| Compound | Drug uptake |
| --- | --- |
| O=C(OCC[18F])C1C2CCC(CC1c1cccc(/C=C\Br)c1)N2 (stereo not drawn) | 3.41 |
